These results are taken from ChEMBL document CHEMBL2062501 (ACS Med Chem Lett, 2012).

Bounds are passed on as bounds.

Usually bioavailability stands for dose-corrected exposure relative to a reference, in per cent. The term inhibition in vivo denotes the relative decrease from the control value, in per cent. A word on the IC50: it is the concentration that inhibits the measured activity by half. A word on the Ki: it is the equilibrium dissociation constant of an inhibitor or competing ligand from its target. For orientation: half-life means the time in which the quantity being followed falls by half.

A short description of data set [1]: Oral bioavailability in rat at 10 mg/kg. The conditions noted are these: in vivo. Type of data set: ADME, organism-based.
Data set [2] in a line: Oral bioavailability in cynomolgus monkey at 10 mg/kg. Type of data set: ADME, organism-based, Macaca fascicularis. The conditions noted are these: in vivo.
Data set [3] can be described thus: Oral bioavailability in dog at 10 mg/kg. Type of data set: ADME, organism-based, Canis lupus familiaris. The conditions noted are these: in vivo.
The nature of data set [4]: Metabolic stability of the compound in human liver microsomes assessed as compound remaining at 0.5 uM after 10 mins. As to conditions: read-out: Stability. Type of data set: ADME, Microsome. (In general: Liver microsomes are vesicles of endoplasmic reticulum, rich in cytochrome P450 enzymes.)
For data set [5], the system named is marmosets. Description: Antimigraine activity in marmosets assessed as inhibition of human alphaCGRP-induced increase in facial blood flow at 7 mg/kg, sc measured after 60 mins by laser Doppler flowmetry. The conditions noted are these: Callitrichinae sp., 1 h, route subcutaneous. The class given is functional.
For data set [6], the system named is marmosets. Description: Antimigraine activity in marmosets assessed as inhibition of human alphaCGRP-induced increase in facial blood flow at 7 mg/kg, sc measured after 105 mins by laser Doppler flowmetry. The class given is functional. As to conditions: Callitrichinae sp., 1.75 h, route subcutaneous.
Data set [7] in a line: Plasma concentration on marmosets at 7 mg/kg, sc measured after 60 mins. Type of data set: ADME, organism-based. More on the design: dose 7 mg/kg, route subcutaneous. The conditions noted are these: callitrichinae sp.
Data set [8] addresses T1, Calcitonin gene-related peptide type 1 receptor (Homo sapiens, UniProt O60894+Q16602). Nature of the data set: Antagonist activity at CGRP receptor in human SK-N-MC cells assessed as inhibition of CGRP-stimulated cAMP production. Type of data set: functional, cell-based. Background: cAMP levels reflect the balance of adenylyl cyclase and phosphodiesterase activity.
Data set [9] is described as follows: Permeability of the compound at pH 7.4 by PAMPA. The class given is ADME. As to conditions: read-out: permeability.
For data set [10], the target named is T1, Calcitonin gene-related peptide type 1 receptor. Description: Displacement of [125I]-CGRP from CGRP receptor in human SK-N-MC cells. The class given is cell-based. On the technique in general: Loss of bound radioactivity is the signal in a displacement assay; it reports binding, not function.
Data set [11] is described as follows: Half life in human liver microsomes at 0.5 uM. Type of data set: ADME, Microsome.
The nature of data set [12]: Plasma concentration on marmosets at 7 mg/kg, sc measured after 105 mins. Type of data set: ADME, organism-based. The arrangement: dose 7 mg/kg, route subcutaneous. As to conditions: callitrichinae sp.
Data set [13] in a line: Permeability of the compound at pH 5.5 by PAMPA. Type of data set: ADME. As to conditions: read-out: permeability.
The test system of data set [14] is marmosets. Description: Antimigraine activity in marmosets assessed as inhibition of alphaCGRP-induced increase in facial blood flow at 10 mg/kg, po by laser Doppler flowmetry. Type of data set: functional. As to conditions: Callitrichinae sp., in Callithrix jacchus.

T1 sequence (Q16602 whole entry, one chain of several): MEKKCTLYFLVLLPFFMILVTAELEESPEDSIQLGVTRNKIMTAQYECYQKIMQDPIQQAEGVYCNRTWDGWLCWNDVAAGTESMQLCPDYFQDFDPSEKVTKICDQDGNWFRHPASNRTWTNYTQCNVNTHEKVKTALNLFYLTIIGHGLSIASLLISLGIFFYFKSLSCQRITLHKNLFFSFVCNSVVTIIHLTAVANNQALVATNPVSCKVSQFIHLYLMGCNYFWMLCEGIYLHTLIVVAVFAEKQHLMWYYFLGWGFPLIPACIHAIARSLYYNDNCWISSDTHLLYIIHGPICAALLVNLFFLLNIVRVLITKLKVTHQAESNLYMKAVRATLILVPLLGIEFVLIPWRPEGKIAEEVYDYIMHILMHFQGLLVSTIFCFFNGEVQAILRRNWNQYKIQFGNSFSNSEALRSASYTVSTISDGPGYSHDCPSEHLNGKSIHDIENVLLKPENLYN

For `O=C(O[C@@H]1CC[C@@H](c2cccc(F)c2F)Cc2cccnc21)N1CCC(n2c(=O)[nH]c3ncccc32)CC1`, the values for the bioavailability in data set [1], in data set [2] and in [3] were 29%, 38% and 34%, respectively. Besides, in [4], the remaining at 10 min, 0.5 µM amounted to 74%. The inhibition in vivo at 7 mg/kg in the data set with marmosets [5] and in the data set on marmosets [6] was 52% in each case. The same molecule registered a concentration at 1 h in [7] above 1000 nM. For the same molecule, the IC50 in data set [8] was found to be 220 pM. Moreover, the Papp was 88 ×10⁻⁶ cm/s in data set [9] and 150 ×10⁻⁶ cm/s in data set [13]. Further, the Ki in [10] is 70 pM. Moreover, in data set [11], the half-life at 0.5 µM came out at 24 min. The concentration at 1.75 h in [12] was above 1500 nM.

Take `O=C(O[C@H]1CC[C@H](c2cccc(F)c2F)Cc2cccnc21)N1CCC(n2c(=O)[nH]c3ncccc32)CC1`: the Ki in data set [10] is 940000 pM.

Regarding `Cc1cc(CC(OC(=O)N2CCC(n3c(=O)[nH]c4ncccc43)CC2)c2cc(C(=O)N(C)C)cc(Cl)n2)cc2cn[nH]c12` (racemic), in the data set on marmosets [14], the inhibition in vivo at 10 mg/kg came out at 31%. In addition, the Ki in data set [10] is 71 pM.
